Entries after “also recorded” stand apart in the source; their conditions may differ. Where a SMILES comes first, the peptide text is derived from it. [ ]: non-standard residue; d: D form. The star is where a group is joined. 5FAM = O=C1OC2(c3ccc(O)cc3Oc3cc(O)ccc32)c2ccc(C(=O)*)cc21; Pro(cis-4-guanidino) = NC(N)=N[C@@H]1CN[C@H](C(=O)O)C1; Cha = N[C@@H](CC1CCCCC1)C(=O)O; Ahx = NCCCCCC(=O)O
System: MCF-7 cells
Experiment: Flow cytometry (FACS): overall cellular uptake
Format: cell-based
Conditions: for Fold higher cellular uptake with additional C-terminal hydrophobic residue (FACS): 1 h, 37 °C, versus the peptide without the C-terminal Cha/ChPro; for Total cellular fluorescence after the 24 h rest compared with directly after 1 h incubation (FACS): MCF-7, 1 h incubation at 37 °C, then 24 h rest in DMEM + 10% FBS
Description: MCF-7 cells were seeded in a 24-well plate at 150′000 cells/well in DMEM (1 mL, 10% FCS), and allowed to adhere overnight. The medium was removed, the cells were washed with PBS (250 μL, 1x) and incubated with the peptide solution at 20 μM, 10 μM, 5 μM or 2.5 μM in medium (200 μL, 1% FCS) for 1 h at 37 °C. The medium was removed, and the cells were washed with PBS (250 μL, 2x). Trypsin (100 μL, 0.05%) was added, and the cells were incubated at 37 °C for 5 min. D-PBS with Mg^2+ and Ca^2+ (300 μL, 4 °C) was added, the cells were resuspended and centrifuged for 5 min at 0.4 rcf. The supernatant was carefully removed, and the cells were resuspended in a solution of PBS containing 1.5 μM PI and 2 mM EDTA (400 μL at 4 °C). The cells were added to FACS tubes and kept on ice prior to analysis. Each sample contained 10′000 cells and was analyzed in triplicate. Each experiment was repeated three times.
For the experiments that included the 24 h rest period, the peptides were incubated as described above. After the 1 h incubation time, the cells were washed with PBS (250 μL, 2x), DMEM (250 μL, 10% FBS) was added, and the cells were kept at 37 °C, 5% CO2 for 24 h. For a direct comparison of the effect of a 24 h rest period, another set of peptides was incubated with the cells for 1 h. Then, cells of both sets of experiments (1 h followed by the 24 h rest period versus 1 h incubation) were washed with PBS, treated with trypsin, and prepared for FACS analysis as described above. Each sample was run in triplicate and was repeated three times. […]
MCF-7 cells were obtained from the American Type Culture Collection (ATCC).
The cells were grown in a humidified 5% CO2 atmosphere at 37 °C Dulbecco’s Modified Eagle’s Medium (DMEM), high glucose, GlutaMAXTM (4 mM) supplemented with L-glutamine (4 mM), gentamicin (10 mg/L), […]
Fluorescence-Activated Cell Sorting (FACS) analyzer
On a BD LSRFortessa flow cytometer, CF was excited at 488 nm and monitored with 530/30 bandpass, PI was excited at 561 nm and monitored with a 610/20 bandpass. Mean fluorescence values were determined from the histograms using FlowJo 10.0.6 software while dead cells were removed according to PI staining.
Below is an example, CF-Ahx-(ChaZZ)3, of gating, set on untreated cells and propagated to all samples.
Each sample was run in triplicate, and each experiment was repeated at least three times.
(1 picture or pasted object on this page, not shown here)

| Molecule | Fold higher cellular uptake with additional C-terminal hydrophobic residue (FACS) (MCF-7, 5 μM) [fold] | Fold higher cellular uptake with additional C-terminal hydrophobic residue (FACS) (MCF-7, 10 μM) [fold] | Fold higher cellular uptake with additional C-terminal hydrophobic residue (FACS) (MCF-7, 20 μM) [fold] | Total cellular fluorescence after the 24 h rest compared with directly after 1 h incubation (FACS) |
| --- | --- | --- | --- | --- |
| N=C(N)N[C@H]1C[C@@H](C(=O)N2C[C@@H](NC(=N)N)C[C@H]2C(=O)N[C@@H](CC2CCCCC2)C(=O)N2C[C@@H](NC(=N)N)C[C@H]2C(=O)N2C[C@@H](NC(=N)N)C[C@H]2C(=O)N[C@@H](CC2CCCCC2)C(=O)N2C[C@@H](NC(=N)N)C[C@H]2C(=O)N2C[C@@H](NC(=N)N)C[C@H]2C(=O)N[C@@H](CC2CCCCC2)C(N)=O)N(C(=O)[C@H](CC2CCCCC2)NC(=O)CCCCCNC(=O)c2ccc3c(c2)C(=O)OC32c3ccc(O)cc3Oc3cc(O)ccc32)C1 [(ChaZZ)3-Cha, CF-Ahx-(ChaZZ)3-Cha-NH2] ({5FAM-Ahx}-[Cha][Pro(cis-4-guanidino)][Pro(cis-4-guanidino)][Cha][Pro(cis-4-guanidino)][Pro(cis-4-guanidino)][Cha][Pro(cis-4-guanidino)][Pro(cis-4-guanidino)][Cha]-NH2) | 3 | 3 | 1.5 | constant or increased |
| CF-Ahx-(ChaZZ)2-Cha-NH2 | 2 | 4 | 6 | lower; also recorded: Significantly less fluorescence was observed after 24 h |
| CF-Ahx-(ChaZZ)3-NH2 | – | – | – | lower; also recorded: less fluorescence was observed after 24 h |

— publication PMC12455572, “Amphipathic Proline-Rich Cell Penetrating Peptides for Targeting Mitochondria” (ACS Chemical Biology, 2025)
